Where two headings read alike, the source gives them in different places.
Assays:
[1] = target: bee venom phospholipase A2 (Apis mellifera, UniProt P00630); format: biochemical
Calcium^2+ channel = experiment: Calcium Channel (mobilization) Inhibition Assay (Fura-2 fluorescence); format: cell-based
Description: Calcium Channel (mobilization) Inhibition Assay
Polymorphonuclear leukocytes (PMNa), gastric glands, GH3 cells, A431 cells, spleen cells, human keratinocytes corneal cells, etc. were loaded with the Ca^2+ sensitive fluorescent dye, Fura-2. The appropriate cell type was chosen and the potency and efficacy of the anti-inflammatory furanones on calcium mobilization, calcium channel inhibition was quantitated. The methods used for A431 cells listed below are representative of those used for other cells.
A431 cells were detached using a 5-10 min trypsin-EDTA treatment whereas GH3 cells were treated 2 to 5 min with a 1% pancreatin solution. Cells were immediately washed twice in a 20 mM HEPES buffer (pH 7.4) containing 120 mM NaCl, 6 mM KCl, 1 mM MgSO4, 1 mg/ml glucose and 1 mg/ml pyruvate and 1.4 mM calcium (medium A). Approximately 5×10^6 cells were suspended in medium A and incubated with 4 uM fura-2-AM for 15 min at 37° C.
After washing the fura-2 loaded cells, the uptake of dye was checked using fluorescence microscopy and found to be evenly distributed in the cytosol of all cells. Fluorescence was continuously recorded with a Perkin-Elmer LS-5 spectrofluorometer. The excitation wavelength was set at 340 nm and emission wavelength set at 500 nm. The cell suspension was continually stirred, maintained at 37° C. and equilibrated for approximately 5 min before addition of various agents. [Ca^2+ i was calculated using the following formula: [formula]
All fluorescence values were measured relative to a EGTA-quenched signal determined as follows: F was the relative fluorescence measurement of the sample. Fmax was determined by lysing the cells with digitonin (100 ug/ml) in DMSO. After Fmax was determined the pH was adjusted to 8, with NaOH and Ca^2+ chelated with 3 mM EGTA to totally quench the fura-2 signal and obtain Fmin.
When quin-2- was used, cells were incubated with 10 uM quin-2- at 37° C. for 1 hour, washed and then used.

[2] = read-out: IC50, Calcium^2+ Channel Mobilization Inhibition, KCl induced
[3] = read-out: IC50, Calcium^2+ Channel Mobilization Inhibition, TRH induced

bee venom phospholipase A2, sequence (P00630 34-167 limits assumed): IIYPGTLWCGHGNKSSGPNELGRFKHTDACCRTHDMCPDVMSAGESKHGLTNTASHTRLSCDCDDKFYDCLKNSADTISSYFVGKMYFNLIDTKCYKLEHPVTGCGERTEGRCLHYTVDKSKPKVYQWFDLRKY

| Structure (SMILES) | IC50, Phospholipase A2 Assay [1] | IC50 (Calcium^2+ channel; [2]) | IC50 (Calcium^2+ channel; [3]) | IC50, Calcium^2+ Channel Mobilization Inhibition, TRH induced (Calcium^2+ channel; TRH induced) |
| --- | --- | --- | --- | --- |
| CCCCCCCCCCCCC(O)C1=CC(=O)OC1C (single isomer, unassigned) [Compound 3, 4-(1-Hydroxytridecyl)-5-methyl-2(5H)-furanone] | inactive at 3 μM | 0.47 µM | 0.67 µM |  |
| CCCCCCCCCCCC(=O)OCC1=C(c2ccccc2)C(=O)OC1C (centres unmarked) [Compound 4, 4-Dodecoyloxymethyl-5-methyl-3-phenyl-2(5H)-furanone] | inactive at 3 μM | 8 µM |  | inactive |
| CC1=C(CC/C(C)=C/CCC2=CCC(C3=CC(=O)OC3O)OC2O)C(C)(C)CCC1 (centres unmarked) [manoalide, reference compound] |  | 0.8 µM | 0.6 µM |  |
| CCCCCCCCCCCCC(OC(C)=O)C1=CC(=O)OC1C (centres unmarked) [Compound 1, 4-(1-Acetoxytridecyl)-5-methyl-2(5H)-furanone] | inactive at 3 μM | 0.36 µM | 6.4 µM |  |
| CCCCCCCCCCCCC(OC(C)=O)C1=C(C)C(=O)OC1 (centres unmarked) [Compound 2, 4-(1-Acetoxytridecyl)-3-methyl-2-furanone] | inactive at 3 μM | 0.25 µM | 1 µM |  |

From patent publication US5451686A, “3 and 5 alkyl and phenyl 4-(hydroxy or acyloxy)-alkyl substituted 2(5H)-furanones as anti-inflammatory agents” (Allergan, Inc., priority 1994, dated 1995)
